Experiment [1] concerns TNFα. Put plainly: TNFα inhibition, LPS-induced PBMCs or CD14+ monocytes, Meso Scale assay. Particulars: LPS 100 ng/mL 18-24 h, read-out: % Inhibition compared to DMSO, TNFα; for inhibition at 1 µM: tested at 1 μM; for inhibition at 10 µM: tested at 10 μM. In kind it is cell-based. As for the experimental part:
(§1) Either frozen primary blood mononuclear cells (PBMCs) or frozen CD14+ mobilized peripheral blood monocytes were purchased from AllCells (PB003F, Normal Peripheral Blood MNC (Alameda, Calif.)). Cells were quick thawed, washed 1-time with RPMI-1640 (10% FBS/1% Pen-Strep) and plated in 96 well plates at 200,000 cells per well. Cells were pretreated with DMSO only or with the indicated compound for 1 h and then induced with 100 ng/mL lipopolysaccharide (LPS) for 18-24 h. The supernatant was analyzed for IL-1β, IL-6, and TNFα, using Meso Scale assay according to manufacturer's protocol. The negative control wells were treated with DMSO.
(§2) IL-1β, IL-6 and TNFα activities were tested at two different concentrations (1 μM and 10 μM) and the results are shown in Tables 2 and 3 respectively.

Experiment [2] concerns the target T1, PDE6D (Homo sapiens, UniProt O43924+Q96SW2).
T1 construct: endogenous in cells; host or cells: MV-4-11
Put plainly: Western blot, degradation of cellular PDE6D in MV-4-11 cells. Type of experiment: cell-based. The conditions noted are these: for Dmax at 1 µM: MV4-11, tested at 1 μM, MV-4-11 cells, 6-8 hours, read-out: % Degradation compared to DMSO, PDE6D. On the procedure: (§3) MV-4-11 cells were grown in RPMI 1640 media supplemented with 10% fetal bovine serum, streptomycin and penicillin.
(§4) Cells were cultured at approximately 10^6 cells per mL and incubated in DMSO or the indicated compounds for 6-8 hours. Whole cell extracts were prepared using RIPA lysis buffer according to manufacturer's protocol (Pierce). Briefly, 4×10^6 cells were washed once in PBS, the cell pellets were resuspended in RIPA lysis buffer and allowed to incubate for 15 minutes on ice. Cells debris was removed by centrifugation and the cleared whole cell lysates were transferred to new tubes for further analysis.
(§5) For Western blot analysis, whole cell protein extracts were separated on 4-12% SDS-polyacrylamide gels, transferred to nitrocellulose and probed with the indicated primary antibodies. Membranes were subsequently washed and probed with the appropriate IRDye secondary antibodies (LI-COR). The signal was detected using the Odyssey Imaging System (LI-COR).
(§6) The following antibodies were used in these studies: Anti-PDE6D antibody: Santa Cruz Biotechnology, sc-166854 (Dallas, Tex.); Anti-Ikaros: Abcam, ab191394 (Cambridge, Mass.); anti-CK1α antibody: Abcam, ab108296 (Cambridge, Mass.); β-Actin (8H10D10) mouse monoclonal antibody: Cell Signaling Technology, #3700 (Danvers, Mass.); IRDye 680RD Goat anti-rabbit antibody: LI-COR, 926-68071 (Lincoln, Nebr.); and IRDye 800CW Goat anti-mouse antibody: LI-COR, 926-32210 (Lincoln, Nebr.).
(§7) The % degradation values are reported as “A”, “B”, “C”, or “D.” “A” represents a % degradation value of less than 25% (value<25%); “B” represents a % degradation value of equal to or more than 25% and less than 50% (25%≤value<50%); “C” represents a % degradation value of equal to or more than 50% and less than 75% (50%≤value<75%); and “D” represents a % degradation value of equal to or more than 75% (value≥75%). […] was used as control.
On the technique in general: Immunoblotting shows a protein as a band on a membrane.

In experiment [3] the test system is IL-6. Kind of experiment: IL-6 inhibition, LPS-induced PBMCs or CD14+ monocytes, Meso Scale assay. In kind it is cell-based. Particulars: LPS 100 ng/mL 18-24 h, read-out: % Inhibition compared to DMSO, IL-6; for inhibition at 1 µM: tested at 1 μM; for inhibition at 10 µM: tested at 10 μM. As for the experimental part:
as §1, §2

Experiment [4] concerns the target T2, CK1α (Homo sapiens, UniProt P48729+Q96SW2).
T2 construct: endogenous in cells; host or cells: MV-4-11
Put plainly: Western blot, degradation of cellular CK1α in MV-4-11 cells. The conditions noted are these: MV4-11, tested at 1 μM, 6-8 hours, read-out: % Degradation compared to DMSO, CK1α. Type of experiment: cell-based. On the procedure: as §3, §4, §5, §6, §7

Experiment [5] relates to IL-2. Put plainly: IL-2 inhibition assay, anti-CD3 (OKT3) stimulated PBMCs, Mesoscale IL-2 analysis. Particulars: for fold induction at 1 µM / fold induction at 10 µM: Homo sapiens, PBMC, PBMCs on anti-CD3, 24 h, fold difference from DMSO control, read-out: IL-2, % Induction compared to DMSO. Type of experiment: cell-based, human. As for the experimental part:
For the IL-2 analysis, 96 well plates were precoated with 1 μg/mL anti-human CD3 antibody (OKT3, eBioscience Inc., San Diego, Calif.). After washing with PBS, the indicated compound was added (50 μL/well) followed by PBMCs diluted at 3-4 million cells/mL (150 μL/well). Plates were incubated for 24 h and the supernatants collected for Mesoscale IL-2 analysis. IL-2 activity is measured as fold difference from the DMSO control. […]
In Table 4, the fold-change values are reported as “A”, “B”, “C”, or “D”. “A” represents a fold-change value of equal to or less than 0.5 (value≤0.5); “B” represents a fold-change value of more than 0.5 and equal to or less than 1 (0.5<value≤1); “C” represents a fold-change value of more than 1 and less than 1.5 (1<value<1.5); and “D” represents a fold-change value of equal to or more than 1.5 (value≥1.5).

Experiment [6] relates to IL-1β. Kind of experiment: IL-1β inhibition, LPS-induced PBMCs or CD14+ monocytes, Meso Scale assay. Type of experiment: cell-based. Particulars: LPS 100 ng/mL 18-24 h, read-out: % Inhibition compared to DMSO, IL-1β; for inhibition at 1 µM: tested at 1 μM; for inhibition at 10 µM: tested at 10 μM. As for the experimental part: as §1, §2
For experiment [7], the target named is T3, Ikaros (Homo sapiens, UniProt Q13422+Q96SW2).
T3 construct: endogenous in cells; host or cells: MV-4-11
Kind of experiment: Western blot, degradation of cellular Ikaros in MV-4-11 cells. In kind it is cell-based. Particulars: MV4-11, tested at 1 μM, 6-8 hours, read-out: % Degradation compared to DMSO, Ikaros. On the procedure: as §3, §4, §5, §6, §7

T2 sequence (P48729 whole entry): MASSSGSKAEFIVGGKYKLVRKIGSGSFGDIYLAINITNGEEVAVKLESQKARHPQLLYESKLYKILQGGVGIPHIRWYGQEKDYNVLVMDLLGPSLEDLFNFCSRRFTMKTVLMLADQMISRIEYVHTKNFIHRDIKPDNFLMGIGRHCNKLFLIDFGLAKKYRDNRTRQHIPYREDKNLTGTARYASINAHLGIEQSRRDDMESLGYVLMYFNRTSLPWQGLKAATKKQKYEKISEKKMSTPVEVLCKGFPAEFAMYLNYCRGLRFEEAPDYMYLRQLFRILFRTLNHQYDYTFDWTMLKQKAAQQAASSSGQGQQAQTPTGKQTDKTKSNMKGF
T2 sequence (Q96SW2 whole entry): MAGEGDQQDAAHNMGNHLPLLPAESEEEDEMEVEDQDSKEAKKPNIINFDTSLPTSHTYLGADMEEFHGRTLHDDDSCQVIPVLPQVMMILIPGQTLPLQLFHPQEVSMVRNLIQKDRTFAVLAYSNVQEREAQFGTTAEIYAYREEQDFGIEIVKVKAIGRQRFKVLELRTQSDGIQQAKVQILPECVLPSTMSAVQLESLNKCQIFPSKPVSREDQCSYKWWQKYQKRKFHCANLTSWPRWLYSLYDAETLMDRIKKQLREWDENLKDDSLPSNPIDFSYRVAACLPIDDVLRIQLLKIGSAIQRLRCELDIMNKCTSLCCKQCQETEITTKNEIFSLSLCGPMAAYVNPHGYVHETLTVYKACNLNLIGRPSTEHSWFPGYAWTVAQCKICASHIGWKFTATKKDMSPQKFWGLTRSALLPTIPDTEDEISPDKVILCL
T2 sequence (Q16531 whole entry partner): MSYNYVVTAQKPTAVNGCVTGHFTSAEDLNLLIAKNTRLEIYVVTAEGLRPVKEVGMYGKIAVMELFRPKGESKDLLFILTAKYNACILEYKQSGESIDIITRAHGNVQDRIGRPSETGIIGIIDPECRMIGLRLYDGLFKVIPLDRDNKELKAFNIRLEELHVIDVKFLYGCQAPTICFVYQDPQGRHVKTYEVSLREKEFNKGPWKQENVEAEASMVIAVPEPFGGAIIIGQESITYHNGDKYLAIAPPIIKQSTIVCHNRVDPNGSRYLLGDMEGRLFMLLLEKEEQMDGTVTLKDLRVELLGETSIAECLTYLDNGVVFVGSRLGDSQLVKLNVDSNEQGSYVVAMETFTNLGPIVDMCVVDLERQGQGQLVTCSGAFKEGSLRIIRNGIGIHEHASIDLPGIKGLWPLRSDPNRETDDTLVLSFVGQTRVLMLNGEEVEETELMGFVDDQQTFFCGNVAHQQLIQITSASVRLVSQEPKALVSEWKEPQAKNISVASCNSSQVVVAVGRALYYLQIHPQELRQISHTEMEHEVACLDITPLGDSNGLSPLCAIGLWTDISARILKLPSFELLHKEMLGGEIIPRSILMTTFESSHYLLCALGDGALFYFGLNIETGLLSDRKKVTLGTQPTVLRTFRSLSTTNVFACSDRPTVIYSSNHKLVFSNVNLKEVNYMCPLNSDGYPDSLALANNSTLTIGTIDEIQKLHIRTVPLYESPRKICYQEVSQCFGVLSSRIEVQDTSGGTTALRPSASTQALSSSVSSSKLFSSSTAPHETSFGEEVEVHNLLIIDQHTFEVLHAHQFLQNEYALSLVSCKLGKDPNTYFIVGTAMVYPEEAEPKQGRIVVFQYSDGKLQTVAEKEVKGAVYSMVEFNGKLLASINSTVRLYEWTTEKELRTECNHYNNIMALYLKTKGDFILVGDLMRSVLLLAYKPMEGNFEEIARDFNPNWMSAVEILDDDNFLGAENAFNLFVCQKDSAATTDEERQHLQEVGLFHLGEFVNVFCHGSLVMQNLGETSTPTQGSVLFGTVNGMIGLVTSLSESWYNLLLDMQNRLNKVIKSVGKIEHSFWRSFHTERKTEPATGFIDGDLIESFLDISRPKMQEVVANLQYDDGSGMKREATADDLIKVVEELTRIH
T3 sequence (Q13422 whole entry): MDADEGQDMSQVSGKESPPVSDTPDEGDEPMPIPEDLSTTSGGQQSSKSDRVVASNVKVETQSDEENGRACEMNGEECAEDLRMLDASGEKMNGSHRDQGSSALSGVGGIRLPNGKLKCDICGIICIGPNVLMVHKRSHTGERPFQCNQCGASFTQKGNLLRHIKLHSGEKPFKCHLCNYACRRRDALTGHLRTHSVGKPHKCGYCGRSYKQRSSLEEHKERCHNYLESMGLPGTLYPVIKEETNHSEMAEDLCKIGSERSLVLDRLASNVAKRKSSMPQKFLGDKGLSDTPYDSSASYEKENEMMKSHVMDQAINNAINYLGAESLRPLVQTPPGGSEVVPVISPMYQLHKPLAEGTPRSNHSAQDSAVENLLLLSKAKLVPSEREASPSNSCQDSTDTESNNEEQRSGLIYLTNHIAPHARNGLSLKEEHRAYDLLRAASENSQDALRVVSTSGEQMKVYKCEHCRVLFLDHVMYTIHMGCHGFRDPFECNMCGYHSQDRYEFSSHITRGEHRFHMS
T3 sequence (Q96SW2 whole entry): as the sequence (Q96SW2 whole entry) above
T3 sequence (Q16531 whole entry partner): as the sequence (Q16531 whole entry partner) above
T1 sequence (O43924 whole entry): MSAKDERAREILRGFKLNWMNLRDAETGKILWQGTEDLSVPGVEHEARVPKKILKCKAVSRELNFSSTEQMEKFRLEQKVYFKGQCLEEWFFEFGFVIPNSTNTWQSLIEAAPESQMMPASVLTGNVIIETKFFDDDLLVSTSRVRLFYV
T1 sequence (Q96SW2 whole entry): as the sequence (Q96SW2 whole entry) above
T1 sequence (Q16531 whole entry partner): as the sequence (Q16531 whole entry partner) above

What is called inhibition is the percentage by which the read-out fell short of the control. With `C[C@@H](c1cc(F)cc2c1CN(C1CCC(=O)NC1=O)C2=O)C(F)(F)F` (stereo partly drawn) [Compound 22], the inhibition at 1 µM in experiment [1], in experiment [3] and in experiment [6] was less than 10% each time. Further, the inhibition at 10 µM in experiment [1] lay within 25 to 50%; in experiment [3] it was 10 to 25%; in experiment [6] it was 10 to 25%. Also, the “% Degradation of PDE6D” value in experiment [2] (1 μM, comparison with comparative compound A) is listed as “D (a % degradation value of equal to or more than 75% (value≥75%))”. For the same molecule, the figures for the Dmax at 1 µM in experiment [2], in experiment [4] and in experiment [7] were no less than 75%, no less than 75% and less than 25%, respectively. For the same molecule, the “effect on IL-2 (in words)” value in experiment [5] (10 μM) is recorded as “strong inhibition of IL-2 (downregulation)”. In addition, in experiment [5] (10 μM, comparison with comparative compound B), the “IL-2, % Induction compared to DMSO” value is “A (a fold-change value of equal to or less than 0.5 (value≤0.5))”. For the same molecule, the fold induction at 1 µM in experiment [5] was no more than 0.5. The fold induction at 10 µM in experiment [5] (10 μM) is no more than 0.5.
As to `O=C1CCC(N2Cc3c(cccc3C3CCCC3)C2=O)C(=O)N1` (stereo not drawn) [Compound 2], the inhibition at 1 µM was less than 10% in experiment [1], 10 to 25% in experiment [3] and less than 10% in experiment [6]. Besides, the inhibition at 10 µM in experiment [1], in experiment [3] and in experiment [6] was 10 to 25% throughout. The Dmax at 1 µM was no less than 75% in experiment [2], 25 to 50% in experiment [4] and less than 25% in experiment [7]. In addition, the fold induction at 1 µM in experiment [5] is 0.5 to 1. The fold induction at 10 µM in experiment [5] (10 μM) lay within 0.5 to 1.
Turning to `CC(C)c1cc(F)cc2c1CN(C1CCC(=O)NC1=O)C2=O` (stereo not drawn) [Compound 34, 3-(6-fluoro-4-isopropyl-1-oxoisoindolin-2-yl)piperidine-2,6-dione], the inhibition at 1 µM in experiment [1] was 25 to 50%; in experiment [3] it was less than 10%; in experiment [6], less than 10%. Further, the Dmax at 1 µM in experiment [2] is no less than 75%; in experiment [4] it was 50 to 75%; in experiment [7], less than 25%. Also, in experiment [5], the fold induction at 1 µM was no more than 0.5.
Take `CC1(C)CC=C(c2cc(F)cc3c2CN(C2CCC(=O)NC2=O)C3=O)CC1` (stereo not drawn) [Compound 8]: the inhibition at 1 µM in experiment [1] was 10 to 25%; in experiment [3] it was 10 to 25%; in experiment [6], less than 10%. In addition, the inhibition at 10 µM in experiment [1] is 25 to 50%; in experiment [3] it was 10 to 25%; in experiment [6] it was less than 10%. Moreover, the Dmax at 1 µM in experiment [2], in experiment [4] and in experiment [7] was less than 25% throughout. In addition, in experiment [5], the fold induction at 1 µM is 0.5 to 1. In experiment [5] (10 μM), the fold induction at 10 µM lay within 0.5 to 1.
Turning to `O=C1CCC(N2Cc3c(cc(F)c(F)c3C3CCCC3)C2=O)C(=O)N1` (stereo not drawn) [Compound 16], the inhibition at 1 µM in experiment [1], in experiment [3] and in experiment [6] was less than 10% in each case. Besides, the inhibition at 10 µM is 10 to 25% in experiment [1], less than 10% in experiment [3] and less than 10% in experiment [6]. In addition, the Dmax at 1 µM in experiment [2] is no less than 75%; in experiment [4] it was 50 to 75%; in experiment [7], less than 25%. Further, the fold induction at 1 µM in experiment [5] fell in the range of 0.5 to 1. Also, the fold induction at 10 µM in experiment [5] (10 μM) is 0.5 to 1.
Turning to `CCC(C)c1cc(F)cc2c1CN(C1CCC(=O)NC1=O)C2=O` (stereo not drawn) [Compound 33, 3-(4-(sec-butyl)-6-fluoro-1-oxoisoindolin-2-yl)piperidine-2,6-dione], the inhibition at 1 µM in experiment [1] was 25 to 50%; in experiment [3] it was less than 10%; in experiment [6], less than 10%. Further, the Dmax at 1 µM in experiment [2] was no less than 75%; in experiment [4], no less than 75%; in experiment [7], less than 25%. In addition, the fold induction at 1 µM in experiment [5] is no more than 0.5.
With `O=C1CCC(N2Cc3c(cc(Cl)cc3C3CCCC3)C2=O)C(=O)N1` (stereo not drawn) [Compound 28], the inhibition at 1 µM in experiment [1] was 10 to 25%; in experiment [3], less than 10%; in experiment [6] it was less than 10%. For the same molecule, the inhibition at 10 µM was 10 to 25% in experiment [1], 10 to 25% in experiment [3] and less than 10% in experiment [6]. Besides, the Dmax at 1 µM in experiment [2], in experiment [4] and in experiment [7] was less than 25% in each case. For the same molecule, the fold induction at 1 µM in experiment [5] is 1 to 1.5. Also, the fold induction at 10 µM in experiment [5] (10 μM) fell in the range of 0.5 to 1.
Take `O=C1CCC(N2Cc3c(cc(F)cc3C3CCC(F)(F)CC3)C2=O)C(=O)N1` (stereo not drawn) [Compound 11]: the inhibition at 1 µM in experiment [1], in experiment [3] and in experiment [6] was less than 10% throughout. For the same molecule, the inhibition at 10 µM in experiment [1], in experiment [3] and in experiment [6] was less than 10% throughout. For the same molecule, the Dmax at 1 µM in experiment [2] is no less than 75%; in experiment [4], 25 to 50%; in experiment [7], no less than 75%. In experiment [5], the fold induction at 1 µM lay within 0.5 to 1. Further, the fold induction at 10 µM in experiment [5] (10 μM) was in the range of 0.5 to 1.
For the molecule `C[C@@H](c1cccc2c1CN(C1CCC(=O)NC1=O)C2=O)C(F)(F)F` (stereo partly drawn) [Compound 30], the inhibition at 1 µM in experiment [1], in experiment [3] and in experiment [6] was less than 10% in each case. Also, the inhibition at 10 µM was 10 to 25% in experiment [1], less than 10% in experiment [3] and less than 10% in experiment [6]. The Dmax at 1 µM in experiment [2] was less than 25%; in experiment [4], less than 25%; in experiment [7], 25 to 50%. Moreover, the fold induction at 1 µM in experiment [5] lay in the range of 1 to 1.5. Further, the fold induction at 10 µM in experiment [5] (10 μM) lay within 0.5 to 1.
For `C[C@H](c1cccc2c1CN(C1CCC(=O)NC1=O)C2=O)C(F)(F)F` (stereo partly drawn) [Compound 31], the inhibition at 1 µM in experiment [1], in experiment [3] and in experiment [6] was less than 10% each time. The inhibition at 10 µM in experiment [1] is 10 to 25%; in experiment [3] it was less than 10%; in experiment [6] it was less than 10%. The Dmax at 1 µM in experiment [2] was less than 25%; in experiment [4] it was 25 to 50%; in experiment [7] it was 50 to 75%. For the same molecule, the fold induction at 1 µM in experiment [5] was 0.5 to 1. Further, the fold induction at 10 µM in experiment [5] (10 μM) lay within 0.5 to 1.

For the origin of these results see patent publication US11352338B2, “Substituted isoindolinones” (BioTheryX, Inc., priority 2018, dated 2022).
